Reference: a compilation of properties of binary mixtures (doi:10.1016/j.jct.2017.08.033)

Assay: xn = mol fraction of the nth substance listed
Settings: 101 kPa

O=S(=O)([N-]S(=O)(=O)C(F)(F)F)C(F)(F)F.[Li+] + CC[n+]1ccn(C)c1.O=S(=O)([N-]S(=O)(=O)C(F)(F)F)C(F)(F)F
viscosity [mPa·s]
Settings	298.15 K	313.15 K	328.15 K	343.15 K	358.15 K
x2 = 0.6	588	225	108.2	60.8	38.3
x2 = 0.7	183	86.6	47.6	29.6	20.1
x2 = 0.8	–	47.5	28.5	18.8	–
x2 = 0.9	46.6	27.4	17.8	12.42	9.08
x2 = 0.95	37.4	22.7	15.1	10.69	7.96

CC[n+]1ccn(C)c1.O=S(=O)([N-]S(=O)(=O)C(F)(F)F)C(F)(F)F + O=S(=O)([N-]S(=O)(=O)C(F)(F)F)C(F)(F)F.[Li+]
x1 = 1
Settings	viscosity [mPa·s]
298.15 K	30.7
328.15 K	13.1
358.15 K	7.12
